Assays:
[1] = test system: Schistosoma mansoni; test: microbe, parasite or virus in culture; settings: Liberian, 72 h
Description: Antischistosomal activity against Schistosoma mansoni Liberian NTS incubated for 72 hrs by microscopic method

[2] = test system: Schistosoma mansoni; test: microbe, parasite or virus in culture; settings: 72 h
Description: Antischistosomal activity against Schistosoma mansoni incubated for 72 hrs by inverted microscopic method

[3] = test system: Schistosoma mansoni; test: Antischistosomal activity against Schistosoma mansoni infected in NMRI mouse assessed as worm burden reduction at 200 mg/kg, po administered as single dose and measured after 17 to 21 days relative to control; format: functional, organism-based; set-up: scale not given: the % may be the effect or the level left; settings: time 17-21 day
[4] = test system: Schistosoma haematobium; test: Antischistosomal activity against Schistosoma haematobium at 10 uM measured after 72 hrs relative to control; format: functional
[5] = test system: Schistosoma mansoni; test: Antischistosomal activity against Schistosoma mansoni Puerto-Rican incubated for 72 hrs by inverted microscopic method; format: functional, organism-based
[6] = test system: Schistosoma mansoni; test: Antischistosomal activity against Schistosoma mansoni infected in NMRI mouse assessed as worm burden reduction at 400 mg/kg, po administered […] for 4 consecutive days and measured after 14 days relative to control; format: functional; set-up: scale not given: the % may be the effect or the level left; settings: time 14 day
[7] = test system: Schistosoma japonicum; test: Schistosomicidal-activity against adult Schistosoma japonicum at 10 uM incubated for 72 hrs by inverted microscopic method relative to control; format: functional
[8] = target: T1, Histone deacetylase 8 (Schistosoma mansoni, UniProt A5H660); test: Inhibition of Schistosoma mansoni HDAC8 using fluorogenic substrate by fluorescence method
T1 sequence (A5H660 whole entry): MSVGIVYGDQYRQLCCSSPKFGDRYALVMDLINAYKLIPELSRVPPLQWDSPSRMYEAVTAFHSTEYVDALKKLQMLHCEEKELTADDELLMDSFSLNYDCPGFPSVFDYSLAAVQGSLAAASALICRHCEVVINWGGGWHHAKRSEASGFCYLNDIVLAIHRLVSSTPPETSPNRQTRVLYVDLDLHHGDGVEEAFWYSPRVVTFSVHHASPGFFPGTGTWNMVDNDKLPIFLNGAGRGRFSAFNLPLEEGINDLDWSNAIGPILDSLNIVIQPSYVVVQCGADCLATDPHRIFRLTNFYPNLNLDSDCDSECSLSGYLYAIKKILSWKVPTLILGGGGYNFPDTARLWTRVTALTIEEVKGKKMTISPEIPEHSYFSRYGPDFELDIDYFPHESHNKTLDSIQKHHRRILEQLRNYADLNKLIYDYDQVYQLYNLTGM

[9] = target: T2, Protein deacetylase HDAC6 (Homo sapiens, UniProt Q9UBN7); test: Inhibition of human HDAC6 using Z-Lys(Ac)-AMC as substrate by fluorimetric method
T2 sequence (Q9UBN7 whole entry): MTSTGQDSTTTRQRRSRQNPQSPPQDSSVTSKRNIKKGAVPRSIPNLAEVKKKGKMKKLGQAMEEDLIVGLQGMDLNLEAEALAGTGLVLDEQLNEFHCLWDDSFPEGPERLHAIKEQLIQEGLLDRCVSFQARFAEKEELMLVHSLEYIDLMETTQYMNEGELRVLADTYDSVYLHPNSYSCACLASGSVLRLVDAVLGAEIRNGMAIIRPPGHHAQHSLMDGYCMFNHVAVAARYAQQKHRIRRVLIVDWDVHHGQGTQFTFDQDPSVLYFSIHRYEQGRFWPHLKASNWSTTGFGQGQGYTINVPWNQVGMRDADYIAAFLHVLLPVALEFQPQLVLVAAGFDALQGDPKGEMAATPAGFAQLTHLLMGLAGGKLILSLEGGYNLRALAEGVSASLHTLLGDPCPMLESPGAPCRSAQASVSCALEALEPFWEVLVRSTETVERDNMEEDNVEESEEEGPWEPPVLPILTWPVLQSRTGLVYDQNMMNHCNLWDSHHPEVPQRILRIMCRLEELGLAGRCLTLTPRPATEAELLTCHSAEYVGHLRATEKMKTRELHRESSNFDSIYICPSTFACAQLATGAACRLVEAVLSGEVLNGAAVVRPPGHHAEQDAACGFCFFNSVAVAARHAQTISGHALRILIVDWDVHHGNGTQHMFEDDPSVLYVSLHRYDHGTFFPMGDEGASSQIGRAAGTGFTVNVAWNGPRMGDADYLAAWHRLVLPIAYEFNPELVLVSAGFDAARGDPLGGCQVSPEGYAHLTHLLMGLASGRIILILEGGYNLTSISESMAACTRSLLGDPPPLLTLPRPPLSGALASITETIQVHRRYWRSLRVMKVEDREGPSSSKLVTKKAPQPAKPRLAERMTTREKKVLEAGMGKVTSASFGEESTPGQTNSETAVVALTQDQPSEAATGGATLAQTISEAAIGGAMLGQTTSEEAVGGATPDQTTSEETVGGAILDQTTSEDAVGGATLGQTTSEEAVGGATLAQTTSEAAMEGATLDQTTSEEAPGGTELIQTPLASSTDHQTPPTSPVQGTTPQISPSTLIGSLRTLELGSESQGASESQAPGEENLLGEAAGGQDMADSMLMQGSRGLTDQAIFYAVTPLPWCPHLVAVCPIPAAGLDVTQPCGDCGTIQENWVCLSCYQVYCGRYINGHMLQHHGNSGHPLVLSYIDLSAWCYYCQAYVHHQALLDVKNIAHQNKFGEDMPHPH

[10] = target: T3, HDAC1 (histone deacetylase 1) (Homo sapiens, UniProt Q13547); test: Inhibition of human HDAC1 at 200 uM using Z-Lys(Ac)-AMC as substrate by fluorimetric method relative to control; settings: HDAC1 enzyme, probe Z-Lys(Ac)-AMC
[11] = target: T3, HDAC1 (histone deacetylase 1); test: Inhibition of human HDAC1 using Z-Lys(Ac)-AMC as substrate at 1 uM by fluorimetric method relative to control; settings: HDAC1 enzyme, probe Z-Lys(Ac)-AMC
[12] = target: T4, Histone deacetylase 8 (Homo sapiens, UniProt Q9BY41); test: Inhibition of human HDAC8 using Fluor de Lys as substrate by fluorimetric method
T4 sequence (Q9BY41 whole entry): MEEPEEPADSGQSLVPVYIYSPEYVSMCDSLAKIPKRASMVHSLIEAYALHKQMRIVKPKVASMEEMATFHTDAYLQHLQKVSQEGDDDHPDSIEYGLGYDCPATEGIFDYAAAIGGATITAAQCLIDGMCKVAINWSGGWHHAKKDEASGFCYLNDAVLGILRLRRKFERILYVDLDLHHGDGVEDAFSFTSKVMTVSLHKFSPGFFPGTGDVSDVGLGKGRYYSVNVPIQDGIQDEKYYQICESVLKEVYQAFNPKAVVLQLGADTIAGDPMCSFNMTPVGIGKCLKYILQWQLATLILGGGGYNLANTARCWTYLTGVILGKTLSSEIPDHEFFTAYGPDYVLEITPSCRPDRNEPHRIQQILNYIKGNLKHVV

[13] = target: T1, Histone deacetylase 8; test: Inhibition of Schistosoma mansoni HDAC8 expressed in Escherichia coli using Fluor de Lys as substrate incubated for 90 mins by fluorescence method
[14] = target: T2, Protein deacetylase HDAC6; test: Inhibition of human HDAC6 using ZMAL(Cbz-(Ac)Lys-AMC as substrate preincubated for 90 mins followed by trypsin addition and measured after 20 mins by fluorimetric method
[15] = target: Histone deacetylase 1 (Homo sapiens, UniProt Q13547); test: Inhibition of human HDAC1 (1 to 482 reidue) expressed in sf9 cells using ZMAL(Cbz-(Ac)Lys-AMC as substrate preincubated for 90 mins followed by trypsin addition and measured after 20 mins by fluorimetric method
[16] = target: T4, Histone deacetylase 8; test: Inhibition of human HDAC8 using Fluor de Lys as substrate incubated for 90 mins by fluorescence method
[17] = test system: Schistosoma mansoni; test: Antischistosomal activity against adult Schistosoma mansoni LE assessed as reduction in motor activity at 50 uM measured after 24 hrs by inverted microscopy relative to control; format: functional; set-up: scale not given: the % may be the effect or the level left
[18] = target: T5, Cathepsin B1 isotype 1 (Schistosoma mansoni) (UniProt Q8MNY2); test: Inhibition of Schistosoma mansoni cathepsin B1 using Z-Phe-Arg-aminomethylcoumarin as substrate at 100 uM by fluorescence method relative to control
T5 sequence (whole entry): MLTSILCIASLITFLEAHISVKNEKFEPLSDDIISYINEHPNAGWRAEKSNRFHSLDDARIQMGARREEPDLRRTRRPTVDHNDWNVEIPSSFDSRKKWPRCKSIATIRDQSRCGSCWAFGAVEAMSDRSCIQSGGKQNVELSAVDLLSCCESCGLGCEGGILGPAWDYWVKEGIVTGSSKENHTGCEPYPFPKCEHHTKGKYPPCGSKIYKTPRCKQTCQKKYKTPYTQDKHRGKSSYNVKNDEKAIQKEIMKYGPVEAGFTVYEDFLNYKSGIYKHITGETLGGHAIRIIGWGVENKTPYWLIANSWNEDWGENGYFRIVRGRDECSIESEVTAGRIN

[19] = test system: Schistosoma mansoni; test: Antischistosomal activity against adult Schistosoma mansoni assessed as worm death at 10 uM incubated for 120 hrs relative to control; format: functional
[20] = test system: Schistosoma japonicum; test: Antischistosomal activity against Schistosoma japonicum assessed as worm death at 10 uM incubated for 120 hrs relative to control; format: functional; settings: Schistosoma japonicum
[21] = target: T6, Thioredoxin glutathione reductase (Schistosoma mansoni, UniProt Q962Y6); test: Inhibition of Schistosoma mansoni thioredoxin glutathione reductase incubated for 30 mins by DTNB assay
T6 sequence (Q962Y6 whole entry): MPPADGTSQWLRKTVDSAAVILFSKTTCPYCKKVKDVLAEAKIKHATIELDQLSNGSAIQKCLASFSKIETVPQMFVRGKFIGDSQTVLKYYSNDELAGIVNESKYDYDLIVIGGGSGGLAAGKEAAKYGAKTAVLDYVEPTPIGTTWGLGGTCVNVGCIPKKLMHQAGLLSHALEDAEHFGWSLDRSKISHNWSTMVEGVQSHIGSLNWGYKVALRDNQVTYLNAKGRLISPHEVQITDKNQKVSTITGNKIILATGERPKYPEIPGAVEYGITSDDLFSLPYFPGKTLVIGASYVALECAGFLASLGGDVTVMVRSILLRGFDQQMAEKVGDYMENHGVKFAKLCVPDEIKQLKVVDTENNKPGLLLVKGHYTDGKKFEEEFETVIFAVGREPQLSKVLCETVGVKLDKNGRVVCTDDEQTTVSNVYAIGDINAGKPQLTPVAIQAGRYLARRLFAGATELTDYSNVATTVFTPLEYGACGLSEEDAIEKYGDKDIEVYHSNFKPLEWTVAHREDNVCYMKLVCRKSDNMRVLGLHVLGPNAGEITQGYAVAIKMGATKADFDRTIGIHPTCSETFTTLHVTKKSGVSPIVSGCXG

[22] = test system: Schistosoma haematobium; test: Antischistosomal activity against Schistosoma haematobium assessed as worm death at 10 uM incubated for 120 hrs relative to control; format: functional
[23] = test system: Schistosoma mansoni; test: Antischistosomal activity against Schistosoma mansoni Schistosomula assessed as worm death at 10 uM incubated for 24 hrs relative to control; format: functional
[24] = test system: Schistosoma mansoni; test: Antischistosomal activity against juvenile Schistosoma mansoni assessed as worm death at 10 uM incubated for 120 hrs relative to control; format: functional
[25] = test system: Schistosoma mansoni; test: Antischistosomal activity against Schistosoma mansoni Liberian infected in NMRI mouse assessed as worm burden reduction at 200 mg/kg, po measured after 14 days relative to control; format: functional; set-up: scale not given: the % may be the effect or the level left; settings: time 14 day
[26] = test system: Schistosoma mansoni; test: Antischistosomal activity against Schistosoma mansoni infected in NMRI mouse assessed as worm burden reduction at 100 mg/kg, po administered as single dose relative to control; format: functional; set-up: scale not given: the % may be the effect or the level left

T3 sequence (Q13547 whole entry): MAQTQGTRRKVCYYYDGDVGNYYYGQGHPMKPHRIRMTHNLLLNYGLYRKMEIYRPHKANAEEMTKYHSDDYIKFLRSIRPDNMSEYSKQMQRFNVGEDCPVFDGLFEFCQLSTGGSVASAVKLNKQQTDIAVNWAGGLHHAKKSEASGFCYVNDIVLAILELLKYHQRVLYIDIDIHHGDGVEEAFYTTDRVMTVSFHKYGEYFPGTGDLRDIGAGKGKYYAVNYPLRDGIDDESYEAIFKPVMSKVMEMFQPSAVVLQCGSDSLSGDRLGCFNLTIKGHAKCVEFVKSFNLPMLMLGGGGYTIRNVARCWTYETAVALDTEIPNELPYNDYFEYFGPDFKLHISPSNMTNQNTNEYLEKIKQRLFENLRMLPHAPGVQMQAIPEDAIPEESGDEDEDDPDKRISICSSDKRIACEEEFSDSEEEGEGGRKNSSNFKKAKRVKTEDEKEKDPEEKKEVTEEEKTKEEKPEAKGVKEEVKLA
Histone deacetylase 1, sequence (Q13547 whole entry): as above

`CS(=O)(=O)c1ccc(C(=O)N(CC2CCCO2)c2nc3ccccc3s2)cc1[N+](=O)[O-]` (centres undefined) gave an IC50 [1] of 0.4 µM, an IC50 [2] of 3.7 µM and an Activity [3] of 55.2%. For the same compound, the Activity [4] was 90.8%.
Compound `O=C(CCl)NCCOc1ccc(Cl)cc1Cl` has an IC50 [1] of 1.8 µM, an IC50 [5] of 3.4 µM and an Activity [6] of 1.8%.
In the case of `O=C(CCl)N1CC(=O)N2CCc3sccc3C2C1` (centres undefined), the Activity [7] is reported as 100%.
For `O=C(NO)c1cccc(C(=O)NOCc2ccc(Cl)cc2Cl)c1`, the IC50 [8] was 0.4 µM, the IC50 [9] was 5.12 µM and the inhibition at 200 µM [10] was 47.5%. For the same compound, the inhibition at 1 µM [11] was < 10% and the IC50 [12] was 0.63 µM.
For `Brc1ccc(Nc2nc3ccccc3nc2Nc2ccc(Br)cc2)cc1`, the IC50 [5] was 0.8 µM and the Activity [6] was 40.8%.
With `CCCCCCC(=O)N(O)C1CC(=O)C(c2ccc(Cl)cc2)C1=O` (centres undefined) the IC50 [13] was 5.5 µM, the IC50 [14] was 2.65 µM and the IC50 [15] was 3.98 µM. The IC50 [16] was 7.69 µM.
With `O[C@@H]1OC[C@@H](Cc2ccc3c(c2)OCO3)[C@@H]1Cc1ccc2c(c1)OCO2` the Activity [17] was >75%.
With `CCCC(=O)OCCNC(=O)c1ccc(CCl)c([N+](=O)[O-])c1` the inhibition [18] was < 27%.
For `COc1ccc([N+](=O)[O-])c(S(=O)(=O)c2ccc(Cl)cc2)n1`, the mortality at 10 µM [19] was 67%, the mortality at 10 µM [20] was 30% and the IC50 [21] was 0.06 µM. The mortality at 10 µM [22] was 48%, the mortality at 10 µM [23] was 100% and the mortality at 10 µM [24] was 57%.
`O[C@H](c1cc(-c2ccc(C(F)(F)F)cc2)nc(C(F)(F)F)c1)[C@H]1CCCCN1` was tested, and the Activity [25] was >82%.
`CC(C)NCC1CCc2cc(CO)c([N+](=O)[O-])cc2N1` (centres undefined) [OXAMNIQUINE] gave an Activity [26] of 99.2%.

From ChEMBL document CHEMBL4811216, “Chemotherapy for human schistosomiasis: how far have we come? What's new? Where do we go from here?” (RSC Med Chem, 2020)
